Source: ChEMBL document CHEMBL3244391, “Antiviral activity of aliphatic nucleoside analogues: structure-function relationship” (1979)

The compounds below were run on Vesicular stomatitis virus (assay: Antiviral activity against Vesicular stomatitis virus infected in rabbit primary kidney cells assessed as inhibition of viral cytopathogenicity after 2 days).
Assay type: functional
`Nc1ncnc2c1ncn2C[C@@H](O)CO` was tested, and the MID was 300 µg/mL.
`OC[C@@H](O)Cn1cnc2c(O)ncnc21` showed an MID of over 400 µg/mL.
With `O=c1ccn(C[C@H](O)CO)c(=O)[nH]1` the MID was 400 µg/mL.
`Cc1cn(C[C@H](O)CO)c(=O)[nH]c1=O` was tested, and the MID was over 400 µg/mL.
For `Cc1cn(C[C@@H](O)CO)c(=O)[nH]c1=O`, the MID was over 400 µg/mL.
In the case of `Cc1c[nH]c(=O)n(C[C@H](O)CO)c1=O`, the MID is reported as over 400 µg/mL.
With `NCCn1cnc2c(N)ncnc21` the MID was over 400 µg/mL.
Compound `CC(=O)OC[C@H](Cn1cnc2c(N)ncnc21)OC(C)=O` has an MID of 300 µg/mL.
Work on `Nc1ncnc2c1ncn2CC[C@H](O)CO` yielded an MID of 100 µg/mL.
With `Nc1ncnc2c1ncn2C[C@@H](O)[C@@H](O)CO` the MID was 300 µg/mL.
With `Nc1ncnc2c1ncn2C[C@H](O)[C@H](O)CO` the MID was 100 µg/mL.
For `Nc1ncnc2c1ncn2C[C@@H](O)[C@H](O)CO`, the MID was 300 µg/mL.
With `Nc1ncnc2c1ncn2C[C@H](O)[C@@H](O)CO` the MID was over 400 µg/mL.
`O=c1ccn(CC[C@H](O)CO)c(=O)[nH]1` gave an MID of over 400 µg/mL.
`O=c1ccn(C[C@@H](O)[C@H](O)CO)c(=O)[nH]1` showed an MID of 400 µg/mL.
With `Nc1ncnc2c1ncn2C(CO)CO` the MID was 300 µg/mL.
Work on `Nc1ncnc2c1ncn2CCCO` yielded an MID of 200 µg/mL.
Compound `Nc1ncnc2c1ncn2CCO` has an MID of over 400 µg/mL.
For `Nc1ncnc2c1ncn2CC(O)CO` (racemic), the MID was 20 µg/mL.
`Nc1nc(O)c2c(ncn2CC(O)CO)n1` (racemic) gave an MID of over 400 µg/mL.
Compound `Nc1ncnc2c1ncn2CCC(O)CO` (racemic) has an MID of 200 µg/mL.
Work on `Nc1ncnc2c1ncn2CCC(O)CCO` (racemic) yielded an MID of over 400 µg/mL.
`Nc1nc(N)c2ncn(CC(O)CO)c2n1` (racemic) showed an MID of over 400 µg/mL.
`CSc1nc(N)c2ncn(CC(O)CO)c2n1` (racemic) showed an MID of over 400 µg/mL.
Compound `Nc1ncnc2c1nc(O)n2CC(O)CO` (racemic) has an MID of over 400 µg/mL.
`Nc1ncnc2c1nc(S)n2CC(O)CO` (racemic) gave an MID of over 400 µg/mL.
Work on `CNc1ncnc2c1ncn2CC(O)CO` (racemic) yielded an MID of over 400 µg/mL.
With `CN(C)c1ncnc2c1ncn2CC(O)CO` (racemic) the MID was over 400 µg/mL.
`OCC(O)Cn1cnc2c(S)ncnc21` (racemic) showed an MID of over 400 µg/mL.
`Nc1nc2c(ncn2CC(O)CO)c(=O)[nH]1` (racemic) gave an MID of over 400 µg/mL.
Compound `Nc1c2ncn(CC(O)CO)c2nc[n+]1[O-]` (racemic) has an MID of over 400 µg/mL.
Work on `Nc1ccn(CC(O)CO)c(=O)n1` (racemic) yielded an MID of 400 µg/mL.
Work on `O=c1cnn(CC(O)CO)c(=O)[nH]1` (racemic) yielded an MID of over 400 µg/mL.
With `CCC(=O)OCC(Cn1cnc2c(N)ncnc21)OC(=O)CC` (racemic) the MID was 300 µg/mL.
`CCCCCCCCCCCCCCCC(=O)OCC(O)Cn1cnc2c(N)ncnc21` (racemic) was tested, and the MID was over 400 µg/mL.
Work on `CC(C)(C)C(=O)OCC(O)Cn1cnc2c(N)ncnc21` (racemic) yielded an MID of over 400 µg/mL.
`CC(C)(C)C(=O)OCC(Cn1cnc2c(N)ncnc21)OC(=O)C(C)(C)C` (racemic) showed an MID of over 400 µg/mL.
`COC(CO)Cn1cnc2c(N)ncnc21` (racemic) showed an MID of 300 µg/mL.
With `COCC(O)Cn1cnc2c(N)ncnc21` (racemic) the MID was over 400 µg/mL.
`COCC(Cn1cnc2c(N)ncnc21)OC` (racemic) gave an MID of 300 µg/mL.
Compound `[N-]=[N+]=NCC(O)Cn1cnc2c(N)ncnc21` (racemic) has an MID of 200 µg/mL.
With `[N-]=[N+]=NCC(Cn1cnc2c(N)ncnc21)N=[N+]=[N-]` (racemic) the MID was 400 µg/mL.
Work on `Nc1ncnc2c1ncn2CC(N)CO` (racemic) yielded an MID of 100 µg/mL.
`NCC(O)Cn1cnc2c(N)ncnc21` (racemic) was tested, and the MID was 200 µg/mL.
In the case of `NCC(N)Cn1cnc2c(N)ncnc21` (racemic), the MID is reported as over 400 µg/mL.
`Nc1ncnc2c1ncn2CC(O)C(O)CO` (racemic) showed an MID of 200 µg/mL.
For `O=c1ccn(CC(O)C(O)CO)c(=O)[nH]1` (racemic), the MID was over 400 µg/mL.
Compound `O=c1ccn(C[C@H](O)[C@H](O)CO)c(=O)[nH]1` (racemic) has an MID of over 400 µg/mL.
`O=c1ccn(CCC(O)CCO)c(=O)[nH]1` (racemic) showed an MID of over 400 µg/mL.
Work on `C[C@@H](O)[C@@H](O)Cn1cnc2c(N)ncnc21` (racemic) yielded an MID of 100 µg/mL.
With `CC(O)Cn1cnc2c(N)ncnc21` (racemic) the MID was over 400 µg/mL.
`Nc1ncnc2c1nc(Br)n2CC(O)CO` (racemic) showed an MID of over 200 µg/mL.
Compound `Nc1ncnc2c1ncn2C[C@H](O)CO` [(S)-DHPA] has an MID of 7 µg/mL.
For `Nc1ccn([C@@H]2O[C@H](CO)[C@@H](O)[C@@H]2O)c(=O)n1` [CYTARABINE], the MID was 10 µg/mL.
`O=c1[nH]c(=O)n([C@H]2C[C@H](O)[C@@H](CO)O2)cc1I` [IDOXURIDINE] was tested, and the MID was over 400 µg/mL.
Work on `Nc1ncnc2c1ncn2[C@@H]1O[C@H](CO)[C@@H](O)[C@@H]1O` [VIDARABINE] yielded an MID of 20 µg/mL.
